# Laboratory results taken from the supplement of paper PMC10307832.
# Assays:
# Assay in all cases: relative viability (nuclei count vs DMSO), 5 days (fraction); higher = more cells survive
# HOP-62 = test system: HOP-62
# Outline: (§1)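 Cells from lung cancer lines were seeded into 1536-well plates and, one day later, dosed by pin tool. Treatments were either a single drug or a fixed dose of an anchor drug with five library-drug doses (not always all listed) in √10 steps. After 5 days, nuclei were stained in a one-step fixation (final 0.05% Triton X-100, 1% formaldehyde, 1 ug/ml Hoechst) and counted on 4× images, and relative viability is the treated-to-vehicle nuclei ratio, as the median of duplicate plates.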
# LK-2 = test system: LK-2
# Outline: as §1
# SK-MES-1 = test system: SK-MES-1
# Outline: as §1
# H3255 = test system: H3255
# Outline: as §1
# ABC-1 = test system: ABC-1
# Outline: as §1
# NCI-H1651 = test system: NCI-H1651
# Outline: as §1
# 201T = test system: 201T
# Outline: as §1
# PC-14 = test system: PC-14
# Outline: as §1
# NCI-H2009 = test system: NCI-H2009
# Outline: as §1
# ChaGo-K-1 = test system: ChaGo-K-1
# Outline: as §1
# LXF-289 = test system: LXF-289
# Outline: as §1
# NCI-H2126 = test system: NCI-H2126
# Outline: as §1
# NCI-H3122 = test system: NCI-H3122
# Outline: as §1
# NCI-H596 = test system: NCI-H596
# Outline: as §1
# NCI-H647 = test system: NCI-H647
# Outline: as §1
# NCI-H441 = test system: NCI-H441
# Outline: as §1
# NCI-H322M = test system: NCI-H322M
# Outline: as §1
# NCI-H2087 = test system: NCI-H2087
# Outline: as §1
# CAL-12T = test system: CAL-12T
# Outline: as §1
# EMC-BAC-2 = test system: EMC-BAC-2
# Outline: as §1
# NCI-H1755 = test system: NCI-H1755
# Outline: as §1
# NCI-H1734 = test system: NCI-H1734
# Outline: as §1
# NCI-H2170 = test system: NCI-H2170
# Outline: as §1
compound,measurement,setting,value
O=c1[nH]c2ccccc2n1C1CCN(CCCC(c2ccc(F)cc2)c2ccc(F)cc2)CC1 [Pimozide] + O=C(CCCCCCC(=O)Nc1ccccc1)NO [Vorinostat] (partner 1 µM),relative viability,HOP-62; first compound 0.08 µM,0.704
same,relative viability,HOP-62; first compound 0.253 µM,0.642
same,relative viability,HOP-62; first compound 2.53 µM,0.494
same,relative viability,HOP-62; first compound 8 µM,0.416
same,relative viability,LK-2; first compound 0.08 µM,0.2
same,relative viability,LK-2; first compound 0.253 µM,0.342
same,relative viability,LK-2; first compound 0.8 µM,0.254
same,relative viability,LK-2; first compound 2.53 µM,0.267
same,relative viability,LK-2; first compound 8 µM,0.395
same,relative viability,SK-MES-1; first compound 0.08 µM,1.13
same,relative viability,SK-MES-1; first compound 0.253 µM,1.02
same,relative viability,SK-MES-1; first compound 0.8 µM,0.991
same,relative viability,SK-MES-1; first compound 2.53 µM,1.06
same,relative viability,SK-MES-1; first compound 8 µM,0.996
same,relative viability,H3255; first compound 0.253 µM,0.699
same,relative viability,H3255; first compound 0.8 µM,0.714
same,relative viability,H3255; first compound 2.53 µM,0.843
same,relative viability,H3255; first compound 8 µM,0.808
same,relative viability,ABC-1; first compound 0.08 µM,1.3
same,relative viability,ABC-1; first compound 0.253 µM,1.15
same,relative viability,ABC-1; first compound 0.8 µM,0.884
same,relative viability,ABC-1; first compound 2.53 µM,0.908
same,relative viability,ABC-1; first compound 8 µM,0.719
same,relative viability,NCI-H1651; first compound 0.08 µM,0.565
same,relative viability,NCI-H1651; first compound 0.253 µM,0.507
same,relative viability,NCI-H1651; first compound 0.8 µM,0.599
same,relative viability,NCI-H1651; first compound 2.53 µM,0.578
same,relative viability,NCI-H1651; first compound 8 µM,0.593
same,relative viability,201T; first compound 0.08 µM,0.881
same,relative viability,201T; first compound 0.253 µM,0.964
same,relative viability,201T; first compound 0.8 µM,0.863
same,relative viability,201T; first compound 2.53 µM,0.942
same,relative viability,201T; first compound 8 µM,0.72
same,relative viability,PC-14; first compound 0.253 µM,0.711
same,relative viability,PC-14; first compound 0.8 µM,0.684
same,relative viability,PC-14; first compound 2.53 µM,0.713
same,relative viability,PC-14; first compound 8 µM,0.701
same,relative viability,NCI-H2009; first compound 0.08 µM,0.639
same,relative viability,NCI-H2009; first compound 0.253 µM,0.764
same,relative viability,NCI-H2009; first compound 0.8 µM,0.651
same,relative viability,NCI-H2009; first compound 2.53 µM,0.698
same,relative viability,NCI-H2009; first compound 8 µM,0.694
same,relative viability,ChaGo-K-1; first compound 0.08 µM,0.726
same,relative viability,ChaGo-K-1; first compound 0.253 µM,0.668
same,relative viability,ChaGo-K-1; first compound 0.8 µM,0.794
same,relative viability,ChaGo-K-1; first compound 2.53 µM,0.841
same,relative viability,ChaGo-K-1; first compound 8 µM,0.758
same,relative viability,LXF-289; first compound 0.08 µM,0.796
same,relative viability,LXF-289; first compound 0.253 µM,0.748
same,relative viability,LXF-289; first compound 0.8 µM,0.718
same,relative viability,LXF-289; first compound 2.53 µM,0.88
same,relative viability,LXF-289; first compound 8 µM,0.755
same,relative viability,NCI-H2126; first compound 0.08 µM,0.704
same,relative viability,NCI-H2126; first compound 0.253 µM,0.818
same,relative viability,NCI-H2126; first compound 0.8 µM,0.782
same,relative viability,NCI-H2126; first compound 2.53 µM,0.785
same,relative viability,NCI-H2126; first compound 8 µM,0.868
same,relative viability,NCI-H3122; first compound 0.08 µM,0.924
same,relative viability,NCI-H3122; first compound 0.253 µM,0.951
same,relative viability,NCI-H3122; first compound 0.8 µM,0.81
same,relative viability,NCI-H3122; first compound 2.53 µM,0.724
same,relative viability,NCI-H3122; first compound 8 µM,0.847
same,relative viability,NCI-H596; first compound 0.08 µM,0.702
same,relative viability,NCI-H596; first compound 0.253 µM,0.598
same,relative viability,NCI-H596; first compound 0.8 µM,0.467
same,relative viability,NCI-H596; first compound 2.53 µM,0.583
same,relative viability,NCI-H596; first compound 8 µM,0.549
same,relative viability,NCI-H647; first compound 0.08 µM,0.5
same,relative viability,NCI-H647; first compound 0.253 µM,0.577
same,relative viability,NCI-H647; first compound 0.8 µM,0.621
same,relative viability,NCI-H647; first compound 2.53 µM,0.268
same,relative viability,NCI-H647; first compound 8 µM,0.431
same,relative viability,NCI-H441; first compound 0.08 µM,0.699
same,relative viability,NCI-H441; first compound 0.253 µM,0.657
same,relative viability,NCI-H441; first compound 0.8 µM,0.74
same,relative viability,NCI-H441; first compound 2.53 µM,0.857
same,relative viability,NCI-H441; first compound 8 µM,0.687
same,relative viability,NCI-H322M; first compound 0.08 µM,0.885
same,relative viability,NCI-H322M; first compound 0.253 µM,0.844
same,relative viability,NCI-H322M; first compound 0.8 µM,0.88
same,relative viability,NCI-H322M; first compound 2.53 µM,0.885
same,relative viability,NCI-H322M; first compound 8 µM,0.786
same,relative viability,NCI-H2087; first compound 0.08 µM,0.802
same,relative viability,NCI-H2087; first compound 0.253 µM,0.597
same,relative viability,NCI-H2087; first compound 2.53 µM,0.615
same,relative viability,NCI-H2087; first compound 8 µM,0.774
same,relative viability,CAL-12T; first compound 0.08 µM,0.732
same,relative viability,CAL-12T; first compound 0.253 µM,0.896
same,relative viability,CAL-12T; first compound 0.8 µM,0.7
same,relative viability,CAL-12T; first compound 2.53 µM,0.665
same,relative viability,CAL-12T; first compound 8 µM,0.664
same,relative viability,EMC-BAC-2; first compound 0.08 µM,0.433
same,relative viability,EMC-BAC-2; first compound 0.253 µM,0.45
same,relative viability,EMC-BAC-2; first compound 0.8 µM,0.384
same,relative viability,EMC-BAC-2; first compound 2.53 µM,0.451
same,relative viability,EMC-BAC-2; first compound 8 µM,0.456
same,relative viability,NCI-H1755; first compound 0.08 µM,0.886
same,relative viability,NCI-H1755; first compound 0.253 µM,0.668
same,relative viability,NCI-H1755; first compound 0.8 µM,0.721
same,relative viability,NCI-H1755; first compound 2.53 µM,0.738
same,relative viability,NCI-H1755; first compound 8 µM,0.682
same,relative viability,NCI-H1734; first compound 0.08 µM,0.841
same,relative viability,NCI-H1734; first compound 0.253 µM,0.739
same,relative viability,NCI-H1734; first compound 0.8 µM,0.569
same,relative viability,NCI-H1734; first compound 2.53 µM,0.763
same,relative viability,NCI-H1734; first compound 8 µM,0.847
same,relative viability,NCI-H2170; first compound 0.08 µM,0.717
same,relative viability,NCI-H2170; first compound 0.253 µM,0.848
same,relative viability,NCI-H2170; first compound 0.8 µM,0.808
same,relative viability,NCI-H2170; first compound 2.53 µM,0.793
same,relative viability,NCI-H2170; first compound 8 µM,0.771
